Tests used:
sciatic nerve = experiment: Kinetics of uptake and clearance after systemic IV injection, in vivo fluorescence imaging; set-up: species or system murine; conditions: IV injection 16.6 mg/kg
Method: (§1) Commercial small animal system: A fluorescence stereomicroscope (SteREO Lumar V12, Carl Zeiss Inc., Thornwood, N.Y.) equipped with a multispectral imaging camera (Nuance, CRI, Woburn, Mass.) was used with an exposure time of 1-5 s. Excitation of the flurophores was achieved using a filter centered at 406 nm with a 15 nm bandwidth. The fluorescence emission spectrum was recorded at wavelengths ranging from 420 to 720 nm at 10-nm increments using the attached multispectral camera. Alternatively, we had also used an emission filter with 550 long pass filter (in the absence of multispectral camera).
(§2) For systemic administration by IV injection, the contrast agents were formulated using the following excipients: 5-15% propylene glycol (Fisher P355-1), 5-30% 2-hydroxypropyl-β-cyclodextrin (2-HPβCD, Sigma H5784) and 70-90% distilled/deionized water. In some cases, PEG-300 and DMSO were also added. The IV formulation was brought to a final pH of 7.4 using 1M of hydrochloric acid.
Specifically, IV formulation for FORMULA I(f) consisted of 80% distilled/deionized water, 10% 2-hydroxypropyl-β-cyclodextrin (2-HPβCD, Sigma H5784), and 10% propylene glycol (Fisher P355-1). […]
A dose of 16.6 mg/kg of FORMULA I(f) was used for measuring the nerve fluorescence at 0.5, 1, 2, 3 and 4 hours after IV injection. […]

nerve = experiment: Intraoperative topical application in porcine surgical model, real-time fluorescence imaging; assay type: in vivo; conditions: pig
From the text: (§3) The laparoscope module comprises a standard 10 mm zero degree surgical laparoscope with 70 degree field of view, a 4 mm diameter, 1800 mm long laparoscope light guide, 35 mm video coupler, a compact 90 gram, 659×494 pixel GigE color camera (acA640-90gc Basler, Ahrensburg, Germany), and a 405 nm blocking filter (BLP01-405R Semrock, Rochester, N.Y.), which has >97% transmission from 420 to 800 nm. The ⅓″ format sensor provides high sensitivity with 7.4 μm pixel size and adequate field of view (40 degrees out of 70 degrees passed by the laparoscope). The video coupler interfaces with the eyepiece of the laparoscope providing an interchangeable set up for different types of laparoscopes. The 405 nm filter is secured directly in front of the image sensor with a c-mount retaining ring. The camera threads onto the video coupler directly.
Illumination for white light and fluorescence imaging is coupled into a single light guide using conventional optics. The light coupling module consists of two 32 mm aspheric lenses to collimate a white light LED and a 500 mW, 405 nm blue laser diode coupled into a multimode fiber with 400 μm diameter (Shanghai Laser & Optics Century Co., Ltd., China). The LED spectrum is filtered with a 450 nm long pass filter (NT49-819, Edmund Optics, Barrington, N.J.) to minimize excitation of the fluorescent agent, while maintaining the white light color spectrum. […]

nerves = experiment: Intraoperative topical application at the surgical site, fluorescence nerve imaging in murine model; assay type: in vivo, mouse
Method: as §1, §3
Illumination for white light and fluorescence imaging is coupled into a single light guide using conventional optics. The light coupling module consists of two 32 mm aspheric lenses to collimate a white light LED and a 500 mW, 405 nm blue laser diode coupled into a multimode fiber with 400 μm diameter (Shanghai Laser & Optics Century Co., Ltd., China). The LED spectrum is filtered with a 450 nm long pass filter (NT49-819, Edmund Optics, Barrington, N.J.) to minimize excitation of the fluorescent agent, while maintaining the white light color spectrum. The LED and laser are combined with a 425 nm dichroic mirror (DMLP425R, Thorlabs). The combined illumination is coupled into the light guide with a third 32 mm aspheric lens (ACL4532, Thorlabs). The maximum irradiance from the LED and 405 nm laser are 2.0 mW/cm2 and 7.3 mW/cm2, respectively, at 25 mm from the tip of the laparoscope. Formulation, dosing, and kinetics for in vivo imaging following systemic IV injection of contrast agent in animal model:
Several different formulations were tested, including but not limited to: • Formulation 1: 10% PEG-300; 20% PG; 0.4% Carbopol; 69.6% water; • Formulation 2: 10% DMSO; 20% PEG-800; 20% PG; 0.1% Polysorbate-80; 49.9% Water; • Formulation 3: 30% PEG-300; 5% DMSO; 10% PVA; 55% water; • Formulation 4: 30% PEG-300; 10% PVA; 60% water; • Formulation 5: 30% PEG-300; 5% DMSO; 30% Pluronic F-68; 0.1% Polysorbate-80; 34.9% water; • Formulation 6: 20% PEG-300; 10% PG; 5% PVP; 5% Laurocapram; 60% water; • Formulation 7: 20% PEG-300; 10% PG; 5% PVP; 5% Laurocapram; 5% EtOH; 5% oleic acid; 10% Tween-80; 40% water; where: PVA=polyvinyl alcohol; PVP=polyvinyl pyrrolidone; and PEG=polyethylene glycol. […]
Topically administered nerve labeling dyes were also able to label nerves in a living animal. The fluorescence from nerves can be detected within minutes after intraoperative topical application. Representative white light and fluorescence images of topically administered FORMULA I(f) in a mouse are shown in FIG. 2A (white light) and FIG. 2B (fluorescence). […]

[1] = system: rat nerve tissue sections; experiment: Ex vivo labeling of cryosectioned nerve tissue; conditions: 10 uM, 1 h, buffer with 10% Cremophor EL and 65% rat serum in PBS
From the text: Various nerves were harvested from male Sprague Dawley rats. Tissue was fixed by perfusion and post-fixed with 10% neutral buffered formalin. Following post-fixation, tissue was cryoprotected in a 20% sucrose solution made in phosphate buffered saline (PBS). Nerves were then flash-frozen using methanol and dry ice in OCT media. In some cases, polyvinylidene fluoride membranes were used to help keep the nerves vertical in the OCT media. 5-10 micron section were sliced on a Leica microtome and stored in a −80° C. freezer prior to staining with agents (1)-(5).
For ex vivo staining of nerve sections, the slides were rinsed in PBS (3×5 min). Contrast agent (with a final concentration of 10 uM) was added onto the tissue in a buffer containing 10% Cremophor EL and 65% rat serum in PBS. The slides were incubated for 1 h in a dark, humid chamber after which they were washed with PBS (3×5 min), cover-slipped, and imaged using a custom filter cube (excitation filter: 387 nm with 11 nm band pass, 409 nm dichroic mirror; emission filter: 409 nm long pass). A buffer only control was also performed using exactly the same procedure to determine autofluorescence under the same settings.
Molecules that are related to the “push-pull” core structure of this class of compound would also benefit from this new method of application. The following is an example of ex vivo labeling of resected nerve tissue. In here, compounds used to stain cryo sectioned nerve tissue from rats.

[2] = Solubility check of the IV formulation; assay type: physicochemical; conditions: propylene glycol, 2-HPβCD, water, pH 7.4; visual, centrifugation, buffer dissolution, dynamic light scattering
Method: as §2
Specifically, IV formulation for FORMULA I(f) consisted of 80% distilled/deionized water, 10% 2-hydroxypropyl-β-cyclodextrin (2-HPβCD, Sigma H5784), and 10% propylene glycol (Fisher P355-1).

| SMILES | best nerve-to-muscle ratio (sciatic nerve; 1 h post-injection, murine model) | time of maximum sciatic nerve and adipose tissue fluorescence (sciatic nerve; measured at 0.5, 1, 2, 3 and 4 hours) | nerve visibility under fluorescence imaging versus white light (nerve; 0.3 milligrams in Formulation 6, retroperitoneal area, 3 minutes, saline irrigation) | nerve visibility under fluorescence guidance versus white light (nerve; 4 milligrams in Formulation 4, 5 minutes, warm saline irrigation) | topical dose that effectively visualizes fluorescent nerves (nerves; Formulation 6, incubated 3 minutes, irrigated with saline, mouse model) | penetration into the nerve bundle, fluorescence microscopy of cryosectioned sciatic nerve (nerves; after topical application, irrigation and excision, 15 micron sections, murine model) | fluorescence intensity from surrounding muscle tissue, topical versus systemic administration (nerves; topical about 0.1 milligrams in Formulation 4 versus IV about 16 mg/kg, multispectral imaging, murine model) | detection of very fine nerve fibers in a brachial plexus branch (nerves; topical in Formulation 4, 5 minutes, irrigated with sterile saline, dual-mode laparoscopic instrument, mouse) | fluorescent staining of nerve tissue sections [1] | solubility in the IV formulation [2] | nerve labeling by topical application (nerves; mouse, small animal commercial instrument) |
| --- | --- | --- | --- | --- | --- | --- | --- | --- | --- | --- | --- |
| COc1cc(/C=C/c2ccc(S(=O)(=O)N3CCN(CCO)CC3)cc2)ccc1/C=C/c1ccc(N)cc1 [FORMULA I(f)] | 3.7 | 1 h | more pronounced under fluorescence imaging compared to white light imaging | highly detectable under fluorescence guidance | 0.01 mg | donut-shaped myelin bundles are stained | lower across all the emission wavelengths | more readily detected under fluorescence guidance | most robust fluorescent staining | Complete solubility |  |
| COc1cc(/C=C/c2ccc(C#N)cc2)ccc1/C=C/c1ccc(N)cc1 [FORMULA I(d)] |  |  |  |  |  |  |  |  | most robust fluorescent staining |  | fluorescence nerve labeling |
| COc1cc(/C=C/c2ccc(S(C)(=O)=O)cc2)ccc1/C=C/c1ccc(N)cc1 [FORMULA I(e)] |  |  |  |  |  |  |  |  | most robust fluorescent staining |  |  |

Source: patent US11730830B2, “Topical application of nerve labeling dyes for image-guided surgery” (General Electric Company, priority 2016, dated 2023)
